Data as given in PubChem BioAssay (NCI).
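Where inhibition never reached the appropriate level, the endpoint shown equals the highest concentration tested. Otherwise, values were interpolated linearly from a five-concentration, 48-hour dose response in 96-well plates. TGI marks complete inhibition of growth.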

How the values were obtained:
Experiment in all cases: inhibition of tumour cell growth, NCI panel, 48 h
MDA-N = system: MDA-N
TK-10 renal = system: TK-10 renal
MCF7 breast = system: MCF7 breast
HCT-15 colon = system: HCT-15 colon
MDA-MB-435 = system: MDA-MB-435
M14 melanoma = system: M14 melanoma
SF-295 CNS = system: SF-295 CNS
T-47D breast = system: T-47D breast
UACC-257 melanoma = system: UACC-257 melanoma
OVCAR-5 ovarian = system: OVCAR-5 ovarian
HOP-92 NSCLC = system: HOP-92 NSCLC

| Structure (SMILES) | TGI (MDA-N) | TGI (TK-10 renal) | TGI (MCF7 breast) | TGI (HCT-15 colon) | TGI (MDA-MB-435) | TGI (M14 melanoma) | TGI (SF-295 CNS) | TGI (T-47D breast) | TGI (UACC-257 melanoma) | TGI (OVCAR-5 ovarian) | TGI (HOP-92 NSCLC) |
| --- | --- | --- | --- | --- | --- | --- | --- | --- | --- | --- | --- |
| Cc1cc(N(CCC#N)CCC#N)ccc1/C(N=Nc1ccccc1)=N\NC(=O)c1cc(Cl)ccc1O | > 100 µM | 52.2 µM | 67.9 µM | 53.1 µM | > 100 µM | > 100 µM | > 100 µM | 55.9 µM | 40.5 µM | – | – |
| O=C(c1ccc(Cl)cc1)N(C(=O)N1CCCCC1)c1ccccc1 | > 100 µM | – | > 100 µM | > 100 µM | > 100 µM | > 100 µM | – | 89 µM | – | > 100 µM | – |
| C=CCON(C(=O)OC(C)(C)C)C(C)(C)C | – | > 100 µM | – | > 100 µM | > 100 µM | > 100 µM | > 100 µM | > 100 µM | > 100 µM | > 100 µM | > 100 µM |
| COc1cc2nc(Cl)nc(NS(=O)(=O)c3cc4ccccc4s3)c2cc1OC | – | > 100 µM | > 100 µM | > 100 µM | 54.5 µM | 85 µM | > 100 µM | 56.7 µM | > 100 µM | 50 µM | 46.8 µM |
| CC(C)(C)OC(=O)N(CCCCNC(=O)C(F)(F)F)CCCNC(=O)C(F)(F)F | – | > 100 µM | > 100 µM | > 100 µM | > 100 µM | > 100 µM | > 100 µM | > 100 µM | > 100 µM | > 100 µM | > 100 µM |
| CC1=NN(c2nc(N)nc(C(C)Cl)n2)C(C)(C)C1 (centres undefined) | – | > 100 µM | > 100 µM | > 100 µM | > 100 µM | > 100 µM | > 100 µM | > 100 µM | > 100 µM | – | > 100 µM |
| O=C(NCCC1CNc2ccccc21)OCc1ccccc1 (centres undefined) | > 100 µM | – | > 100 µM | > 100 µM | > 100 µM | > 100 µM | > 100 µM | – | > 100 µM | > 100 µM | > 100 µM |
| C[C@@H]1CC[C@]2(C)C3(C)CC[C@]2(OC3=O)[C@@]12CC(c1ccoc1)OC2=O (some centres undefined) | > 100 µM | 96.7 µM | > 100 µM | > 100 µM | 56.4 µM | 57.2 µM | > 100 µM | > 100 µM | – | 78.4 µM | 69.2 µM |
| COC(=O)[C@@]12OC[C@]34C([C@@H](O)C1O)[C@@]1(C)CC(=O)C(OC(=O)CC(C)C(F)(F)F)=C(C)C1C[C@H]3OC(=O)[C@H](O)[C@H]42 (some centres undefined) | – | > 62.5 µM | – | > 62.5 µM | – | 9.76 µM | 42.5 µM | – | 35.3 µM | > 62.5 µM | 23.1 µM |
| O=C(c1ccccc1)C1(Br)S(=O)(=O)OCCOS1(=O)=O | – | > 100 µM | – | > 100 µM | – | > 100 µM | > 100 µM | – | > 100 µM | > 100 µM | > 100 µM |
| C[C@H]1CC[C@@]2(OC1)O[C@H]1C[C@H]3[C@@H]4CC[C@@H]5C[C@@H](OC6OC(CO)C(O)C(O)C6OC6OC(CO)C(O)C(O)C6O)CC[C@]5(C)[C@H]4CC[C@]3(C)[C@H]1[C@@H]2C (some centres undefined) | – | 3.61 µM | 3.8 µM | 3.67 µM | 3.88 µM | 3.75 µM | 3.95 µM | 3.85 µM | 3.86 µM | 3.45 µM | 4.12 µM |
| CCN(/C=C1/C(=O)C(c2ccccc2)N(c2ccccc2)C1=O)CC (centres undefined) | > 10 µM | > 10 µM | > 10 µM | > 10 µM | > 10 µM | > 10 µM | > 10 µM | > 10 µM | > 10 µM | > 10 µM | – |
| CCOC(=O)C1(C/C=C\CBr)CCCC1=O (centres undefined) | – | 39 µM | 55.2 µM | 66.5 µM | 57.2 µM | 75.1 µM | > 100 µM | 94.3 µM | > 100 µM | > 100 µM | – |
| CC(SC(=S)N1CCOCC1)C(=O)Nc1nnc(-c2ccc(Cl)cc2)o1 (centres undefined) | – | > 100 µM | > 100 µM | > 100 µM | > 100 µM | > 100 µM | – | > 100 µM | > 100 µM | > 100 µM | > 100 µM |
| COc1ccc2nc3c(c(N)c2c1)C1CCC3C1(C)C (centres undefined) | – | > 100 µM | > 100 µM | > 100 µM | > 100 µM | 33.6 µM | 69.7 µM | > 100 µM | 40.5 µM | > 100 µM | 57.3 µM |
| Cc1cc(O)c(/C=N/C(N)=S)c(=O)o1 | > 100 µM | 90.5 µM | > 100 µM | > 100 µM | > 100 µM | > 100 µM | > 100 µM | – | > 100 µM | > 100 µM | > 100 µM |
| Cn1c2ccccc2c(=O)c2c(O)cc3c(c21)C1OCC(C)(O)C1O3 (centres undefined) | > 100 µM | > 100 µM | > 100 µM | > 100 µM | > 100 µM | > 100 µM | – | > 100 µM | > 100 µM | > 100 µM | – |
| CCOC(=O)c1c2c(n(-c3ccc(C)cc3)c1C)-c1ccccc1C(=O)C2(C(=O)OCC)C(=O)OCC | – | > 100 µM | 76.6 µM | > 100 µM | 93.5 µM | > 100 µM | > 100 µM | 64.5 µM | > 100 µM | > 100 µM | 88.6 µM |
| COC(=O)c1c(C)cccc1/C=C1\Cc2ccc(C)c(C)c2C1=O | > 100 µM | > 100 µM | > 100 µM | > 100 µM | – | > 100 µM | > 100 µM | > 100 µM | > 100 µM | > 100 µM | > 100 µM |
| CN(NC1=NCCO1)c1ccc2ccccc2c1 | – | > 100 µM | > 100 µM | > 100 µM | > 100 µM | > 100 µM | > 100 µM | > 100 µM | > 100 µM | > 100 µM | 57.3 µM |
| O=[N+]([O-])c1ccc(/C=N/Nc2nc3ccccc3[nH]2)o1 | 31.7 µM | 50 µM | – | 42.8 µM | 18 µM | 27.6 µM | 41.7 µM | 35.8 µM | > 100 µM | 49.8 µM | 39.1 µM |
| O=c1[nH]c2[nH]c(=S)[nH]c(=S)c2[nH]1 | > 100 µM | > 100 µM | – | > 100 µM | > 100 µM | > 100 µM | > 100 µM | > 100 µM | > 100 µM | > 100 µM | > 100 µM |
